Converted amounts (≈) assume the structure as drawn. Read-outs that look alike come from different tables or passages of the source.
Assays:
[1] = In vivo conversion of compound I to compound II
Description: The invention is based on the discovery that compound I ((3S)-3-({[(2S)-3-(biphenyl-4-ylsulfonyl)-1,3-thiazolidin-2-yl]carbonyl}-amino)-3-(4-fluorophenyl)propyl L-valinate, represented by formula I, below) and salts thereof are converted in vivo to 3-([1,1′-biphenyl]-4-ylsulfonyl)-N-[1-(4-fluorophenyl)-3-hydroxypropyl]-1,3-thiazolidine-2-carboxamide (represented by formula II, below).
Compound II is a competitive and reversible prostaglandin F2α receptor antagonist (human FP2α receptor Ki=6 nM) that is under development for the management of preterm labor by inhibition of premature uterine contractions.

[2] = Stability in HBSS buffer of the Caco-2 experiments; type: in vitro ADME; conditions: HBSS buffer (2% DMSO final concentration) at 37° C. for 60 and 120 minutes
Description: Stability of both compound I and compound II was assessed during the test. […] An aliquot of each solution was sampled at time zero (t=0) to assess the starting concentrations of the compounds. The solutions were incubated at 37° C. for the duration of the transport experiment. An aliquot of each solution was sampled at the end of experiment (t=120) to assess the final concentrations of compound I and compound II. Samples were analyzed by LC-MS.

PepT1 transporter = target: T1, PepT1 transporter (Homo sapiens, UniProt P46059); experiment: Mucosal-to-serosal transport in Caco-2 after pre-treatment with PepT1 substrate Gly-Sar; type: in vitro ADME
T1 construct: host or cells: Caco-2
T1 sequence (P46059 1-708): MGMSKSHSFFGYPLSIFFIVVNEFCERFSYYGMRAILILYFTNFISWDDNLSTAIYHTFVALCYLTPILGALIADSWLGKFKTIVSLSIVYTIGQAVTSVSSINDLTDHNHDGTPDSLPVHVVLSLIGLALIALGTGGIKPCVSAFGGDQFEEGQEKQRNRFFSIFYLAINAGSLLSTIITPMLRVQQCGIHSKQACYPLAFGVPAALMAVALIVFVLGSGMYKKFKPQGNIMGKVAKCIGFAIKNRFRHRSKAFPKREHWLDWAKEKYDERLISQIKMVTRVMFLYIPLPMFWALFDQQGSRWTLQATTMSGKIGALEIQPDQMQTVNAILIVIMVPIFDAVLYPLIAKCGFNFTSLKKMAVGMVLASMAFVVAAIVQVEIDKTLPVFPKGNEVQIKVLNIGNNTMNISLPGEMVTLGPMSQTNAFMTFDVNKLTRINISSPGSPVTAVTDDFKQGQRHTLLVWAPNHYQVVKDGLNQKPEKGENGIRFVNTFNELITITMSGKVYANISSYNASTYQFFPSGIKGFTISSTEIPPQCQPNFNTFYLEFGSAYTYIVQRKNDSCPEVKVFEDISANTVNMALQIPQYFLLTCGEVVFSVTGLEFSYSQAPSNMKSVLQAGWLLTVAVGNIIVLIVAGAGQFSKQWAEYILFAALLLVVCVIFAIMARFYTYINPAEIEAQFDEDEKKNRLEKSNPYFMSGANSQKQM
Description: The differentiated cells were pre-treated for 30 min. with 10 mM of Gly-Sar in order to block the active transporter PepT1.
(§1) Compound I was dissolved in HBSS buffer (1% DMSO final concentration) at the concentrations of 1.5, 3 and 6 NM. Each concentration/sampling time was run in duplicate well. The test was performed in a gradient pH: the apical compartment (mucosal) was at pH 6.5, the basolateral compartment (serosal) was at pH 7.4.
(§2) Apical to basolateral (A→B, mucosal to serosal) transport: 200 μL of each concentration of compound I was added to the apical compartment and 400 μL of HBSS was added to the basolateral compartment. The plates were incubated at 37° C. An aliquot of the basolateral compartment was sampled after 60 and 120 min (t=60 and t=120). An aliquot of the apical compartment was sampled at the starting time (t=0) and after 120 min. (t=120). All samples were analyzed by LC/MS monitoring both compound I and the appearance of compound II.

[3] = Solubility in water, FaSSIF and FeSSIF; type: physicochemical
[4] = Non-specific binding to cell-free transwells; type: in vitro ADME; conditions: 1.5, 3 and 6 μM; apical pH 6.5, basolateral pH 7.4
Description: Non-specific binding and recovery was assessed across cell-free transwells.
Compound I was tested at 1.5, 3 and 6 μM in duplicate cell-free transwells. The test was performed in a pH gradient between the apical and the basolateral compartment. […] The following sampling times were performed: 60 and 120 min for the basolateral compartment (receiver) and 120 min for the apical compartment (donor). Samples obtained were analyzed by LC-MS, both compound I and compound II were monitored in order to assess percent of recovery.

[5] = system: spontaneous uterine contractions; experiment: Spontaneous uterine activity in late-term anaesthetized pregnant rat; type: in vivo; conditions: late-term pregnant rats
Text: The tocolytic effects of compound I and compound II were investigated in a model of spontaneous uterine activity in late-term (19-21 days of gestation) anaesthetized pregnant rat (Kawarabayashi et al. Am. J. Obstet. Gynecol. 175:1348-1355 (1996) and Shinkai et al. J. Pharm. Pharmacol. 52:1417-1423 (2000)). Briefly, late-term pregnant female rats were anaesthetized with urethane. One pregnant uterine horn was exposed and a polyethylene catheter bearing on the tip a latex balloon filled with saline was inserted into the lumen. The catheter was connected to an amplifying/recording system via a pressure-transducer. […] The percent variation of the AUC values relative to the spontaneous uterine response observed after each compound administration was calculated in comparison to the value recorded before the first dose-administration (basal value). The effect of compound I or compound II was evaluated by comparing pre- and post-treatment luminal uterine pressure values. For the oral administration the same computation procedure was applied at different time points after treatment. Statistical differences between treatment groups at each time-point were determined by using one-way ANOVA followed by Tukey test. Both compounds intravenously or orally administered were able to markedly reduce spontaneous uterine

Caco-2 cell monolayer = experiment: Bidirectional permeability across Caco-2 cell monolayers; type: in vitro ADME, human
Description: as §1, with “μM.” for “NM.”
as §2, with “(t=120).” for “(t=120). All samples were analyzed by LC/MS monitoring both compound I and the appearance of compound II.”
(§3) Basolateral to apical (B→A, serosal to mucosal) transport: 400 μL of each concentration of compound I was added to the basolateral compartment and 200 μL of HBSS was added to the apical compartment. The plates were incubated at 37° C. An aliquot of the apical compartment was sampled after 60 and 120 min (t=60 and t=120). An aliquot of the basolateral compartment was sampled at the starting time (t=0) and after 120 min. (t=120). All samples were analyzed by LC/MS monitoring both compound I and the appearance of compound II.
as §1, with “II” for “I”, “μM.” for “NM.”
as §2, with “II” for “I”, “(t=120).” for “(t=120). All samples were analyzed by LC/MS monitoring both compound I and the appearance of compound II.”
as §3, with “of compound II was added” for “of compound I was added”, “LC/MS monitoring compound II.” for “LC/MS monitoring both compound I and the appearance of compound II.”

## CC(C)[C@H](N)C(=O)OCC[C@H](NC(=O)[C@@H]1SCCN1S(=O)(=O)c1ccc(-c2ccccc2)cc1)c1ccc(F)cc1 [Compound I, (3S)-3-({[(2S)-3-(biphenyl-4-ylsulfonyl)-1,3-thiazolidin-2-yl]carbonyl}-amino)-3-(4-fluorophenyl)propyl L-valinate]
[1]
  Conversion to compound II after gastro-intestinal tract administration: rapidly converted to compound II
[2]
  Stability in HBSS buffer: stable
PepT1 transporter
  PepT1 mediation of transport across Caco-2 monolayers: likely not mediated by PepT1
PepT1 transporter; 10 mM Gly-Sar, A→B, 60 and 120 min
  Compound I in receiving compartment after Gly-Sar pre-treatment: not detected
[3]; FaSSIF, pH 6.5 (fasted state), read-out: Solubility in FaSSIF pH 6.5
  solubility: 70 µg/mL (≈ 117 µM)
[3]; FeSSIF, pH 5.0 (fed state), read-out: Solubility in FeSSIF pH 5.0
  solubility: 90 µg/mL (≈ 150 µM)
[4]
  Non-specific binding in the Caco-2 test system without cells: excluded
[5]
  Effect on spontaneous uterine contraction (FIG. 2): dose-dependent and reversible effect
Caco-2 cell monolayer
  Conversion of compound I into compound II in Caco-2 test: confirmed
Caco-2 cell monolayer; 60 and 120 minutes
  Compound I in receiving (apical) compartment, basolateral to apical: not detected
  Compound I in receiving (basolateral) compartment, apical to basolateral: not detected
Caco-2 cell monolayer; 120 min
  Recovery of compound I in apical compartment at end of apical to basolateral experiment: low recovery
Caco-2 cell monolayer; bi-directional test
  Passage through the Caco-2 cell monolayer: did not pass through the cell monolayer

— patent US11524003B2, “Alpha-amino esters of hydroxypropylthiazolidine carboxamide derivative and salt form, crystal polymorph thereof” (ObsEva S.A., priority 2016, dated 2022)
